Data on 24 molecules can be found in ChEMBL document CHEMBL1125177, “Pseudopeptide analogues of substance P and leucine enkephalinamide containing the psi (CH2O) modification: synthesis and biological activity” (J Med Chem, 1991).

As usually defined, the EC50 is the concentration that produces a half-maximal response. By Ki is commonly meant the equilibrium dissociation constant of an inhibitor or competing ligand from its target. A low value points to tighter binding. The term IC50 denotes the concentration that gives 50% inhibition. A low value points to higher potency.

The species named for assay [1] is Cavia porcellus. Briefly: Relative potency to that of [D-Ala2,Leu5]enkephalinamide in guinea pig ileum. The assay is classed as functional.
A short description of assay [2]: Ratio of NK-1 receptor to that of NK-3 receptor. Type of assay: functional.
For assay [3], the target named is T1, Neuromedin-K receptor (Cavia porcellus) (UniProt P30098).
T1 sequence (whole entry): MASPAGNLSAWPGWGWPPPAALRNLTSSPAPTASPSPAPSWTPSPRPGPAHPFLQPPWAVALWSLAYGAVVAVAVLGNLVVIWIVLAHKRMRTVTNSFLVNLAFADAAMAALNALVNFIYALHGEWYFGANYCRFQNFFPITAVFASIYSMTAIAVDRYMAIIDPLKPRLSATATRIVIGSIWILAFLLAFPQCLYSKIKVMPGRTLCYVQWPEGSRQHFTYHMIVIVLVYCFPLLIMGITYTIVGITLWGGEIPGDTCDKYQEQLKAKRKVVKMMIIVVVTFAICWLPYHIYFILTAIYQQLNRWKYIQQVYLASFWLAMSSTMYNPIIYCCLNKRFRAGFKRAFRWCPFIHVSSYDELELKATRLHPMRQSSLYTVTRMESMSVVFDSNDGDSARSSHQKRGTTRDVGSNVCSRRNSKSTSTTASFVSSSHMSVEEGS
The experiment in a line: Relative potency as ratio of the EC50 value of analogue to that of [PGlu6]SP6-11 in tachykinin receptor 3 in guinea pig ileum. Type of assay: functional, tissue-based.

For assay [4], the target named is T2, Neuromedin-K receptor (Cavia porcellus, UniProt P30098).
T2 sequence (P30098 whole entry): T1 sequence (whole entry)
The experiment in a line: Effective dose was measured on NK3 receptors of guinea pig ileum for maximal contraction in the presence of 10e-7 M substance P methyl ester. The assay is classed as functional, tissue-based.

Assay [5] has as its target Substance-P receptor (Cavia porcellus, UniProt P30547). Briefly: Effective dose was measured on NK1 receptors of guinea pig ileum for maximal contraction in the presence of 3*10e-7 M atropine. Type of assay: functional, tissue-based.
Assay [6] is filed under the species Rattus norvegicus. The experiment in a line: Inhibitory effect was measured on electrically stimulated rat vas deferens contraction. Type of assay: functional.
The species named for assay [7] is Cavia porcellus. Briefly: Effective dose was measured on guinea pig ileum for maximal contraction. Type of assay: functional.
A short description of assay [8]: Ratio of IC50 measured in MVD to that of GPI. The assay is classed as functional.
Assay [9] deals with Delta-type opioid receptor (Rattus norvegicus, UniProt P33533). The experiment in a line: Binding affinity to opioid receptor delta was determined in rat brain using [3H]DSTBULET as radioligand. The assay is classed as tissue-based.
The species entered for assay [10] is Mus musculus. Briefly: Relative potency to that of [D-Ala2, Leu5]-enkaphalinamide in mouse vas deferens. Type of assay: functional.
For assay [11], the species on record is Mus musculus. Briefly: Inhibitory effect was measured on mouse vas deferens. The assay is classed as functional.
Assay [12] is filed under the species Cavia porcellus. Briefly: Inhibitory effect was measured on guinea pig ileum for maximal contraction. Type of assay: functional.
The target in assay [13] is Delta-type opioid receptor (Rattus norvegicus) (UniProt P33533). Briefly: It is the ratio of Ki value for delta receptor to that of opioid receptor mu.
For assay [14], the species on record is Cavia porcellus. The experiment in a line: Relative potency to that of [DAla2,Leu5]enkaphalinamide. Type of assay: functional.
For assay [15], the target named is Mu-type opioid receptor (Rattus norvegicus, UniProt P33535). The experiment in a line: Binding affinity to opioid receptor mu was determined in rat brain using [3H]DAGO as radioligand. Type of assay: tissue-based.
Assay [16] is filed under the species Cavia porcellus. The experiment in a line: Relative potency to that of [pGlu6]SP6-11 in guinea pig ileum. The assay is classed as functional.
Assay [17] is filed under the species Cavia porcellus. The experiment in a line: Effective concentration was determined using guinea pig ileum. Type of assay: functional.
The target in assay [18] is T2, Neuromedin-K receptor. The experiment in a line: Effective dose was measured on NK3 receptors of guinea pig ileum for maximal contraction in the presence of 10e-7 M substance P methyl ester. The assay is classed as functional, tissue-based.
The species named for assay [19] is Cavia porcellus. The experiment in a line: Relative potency as ratio of the EC50 value of analogue to that of [PGlu6]SP6-11 in achykinin receptor 3 in guinea pig ileum. Type of assay: functional.
A short description of assay [20]: Ratio of IC50 measured in MVD to that of GPI; c= Did not show agonist activity up to 10E-5 M. The assay is classed as functional.
The species named for assay [21] is Mus musculus. Briefly: Inhibitory effect was measured on mouse vas deferens; c = Did not show agonist activity up to 10E-5 M. Type of assay: functional.
For assay [22], the species on record is Mus musculus. Briefly: Relative potency to that of [D-Ala2, Leu5]-enkaphalinamide in mouse vas deferens; c = Did not show agonist activity up to 10E-5 M. Type of assay: functional.

Calls of active or inactive are those of the source. The rule behind the calls is not given here. Starred links: 1 amine or outer side, 2 acyl side, 3 side chain; linkers in the order of their positions; H or OH if unused. Non-standard residues stand in square brackets, D forms with d. Residues, ends and D or L forms follow the SMILES beside them. X3 = O=C(CCC(=O)[*:2])[C@H](Cc1ccccc1)N[*:1]; X4 = O=C(C/C=C/[C@H](Cc1ccccc1)N[*:1])[*:2]; X1 = O=C(COC[C@H](Cc1ccccc1)N[*:1])[*:2]; NMeF = CN[C@@H](Cc1ccccc1)C(=O)O; pGlu = O=C1CC[C@@H](C(=O)O)N1; AEA = NCCOCC(=O)O; Ava = NCCCCC(=O)O; Sar = CNCC(=O)O

Chain of Delta-type opioid receptor (P33533 whole entry): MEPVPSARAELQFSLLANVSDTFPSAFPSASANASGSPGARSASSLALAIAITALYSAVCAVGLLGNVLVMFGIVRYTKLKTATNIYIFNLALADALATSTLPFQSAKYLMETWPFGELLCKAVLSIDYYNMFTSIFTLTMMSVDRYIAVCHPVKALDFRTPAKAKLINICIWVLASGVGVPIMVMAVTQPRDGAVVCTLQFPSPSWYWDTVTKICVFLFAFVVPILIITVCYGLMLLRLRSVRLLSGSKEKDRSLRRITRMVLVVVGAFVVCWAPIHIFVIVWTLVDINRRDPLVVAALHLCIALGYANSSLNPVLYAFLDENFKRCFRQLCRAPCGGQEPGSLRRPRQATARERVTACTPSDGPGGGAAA
Chain of Substance-P receptor (P30547 whole entry): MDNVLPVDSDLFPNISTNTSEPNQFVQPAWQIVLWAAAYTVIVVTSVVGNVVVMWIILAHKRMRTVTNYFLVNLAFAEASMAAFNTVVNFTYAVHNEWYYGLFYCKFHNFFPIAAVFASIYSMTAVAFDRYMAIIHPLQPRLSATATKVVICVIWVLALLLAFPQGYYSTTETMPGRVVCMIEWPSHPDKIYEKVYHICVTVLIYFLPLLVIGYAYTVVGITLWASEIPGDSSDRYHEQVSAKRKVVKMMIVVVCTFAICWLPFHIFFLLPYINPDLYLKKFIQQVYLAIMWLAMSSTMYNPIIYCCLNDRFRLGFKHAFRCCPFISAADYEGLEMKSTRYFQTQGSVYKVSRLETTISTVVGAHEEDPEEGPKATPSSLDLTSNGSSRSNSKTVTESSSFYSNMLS
Chain of Delta-type opioid receptor (Rattus norvegicus) (P33533 whole entry): as the sequence (P33533 whole entry) above
Chain of Mu-type opioid receptor (P33535 whole entry): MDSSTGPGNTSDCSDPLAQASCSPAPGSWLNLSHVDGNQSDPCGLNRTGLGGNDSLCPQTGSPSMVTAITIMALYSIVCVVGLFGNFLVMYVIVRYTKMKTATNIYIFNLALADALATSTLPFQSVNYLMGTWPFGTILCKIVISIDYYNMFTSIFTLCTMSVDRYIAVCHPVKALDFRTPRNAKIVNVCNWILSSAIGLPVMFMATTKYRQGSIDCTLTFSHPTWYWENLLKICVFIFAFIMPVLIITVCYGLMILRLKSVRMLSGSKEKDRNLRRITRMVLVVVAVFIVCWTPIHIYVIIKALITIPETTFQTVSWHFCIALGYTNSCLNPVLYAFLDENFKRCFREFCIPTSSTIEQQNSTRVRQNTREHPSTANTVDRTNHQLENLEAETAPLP

In turn, `CSCC[C@H](NC(=O)[C@H](Cc1ccccc1)NC(=O)CCCCNC(=O)[C@@H](N)Cc1ccc(O)cc1)C(N)=O` (H-Y[Ava]FM-NH2) registered a Relative potency in [1] of less than 0.3%.

Turning to `CSCC[C@H](NC(=O)[C@H](CC(C)C)NC(=O)CNC(=O)[C@H](Cc1ccccc1)NC(=O)[C@H](Cc1ccccc1)NC(=O)[C@@H]1CCC(=O)N1)C(N)=O` ([pGlu]FFGLM-NH2), in [2], the Ratio turned out to be 0.44. Besides, the Relative potency in [3] came to 100%. In addition, the EC50 came to 5 nM in assay [4], 2.2 nM in assay [5], 20000 nM in [6] and 1.2 nM in [7].

In assay [1], `CSCC[C@H](NC(=O)[C@H](Cc1ccccc1)NC(=O)CNCCNC(=O)[C@@H](N)Cc1ccc(O)cc1)C(N)=O` showed a Relative potency of 0.3%.

Take `COC(=O)[C@H](CC(C)C)NC(=O)[C@H](Cc1ccccc1)NC(=O)CNC(=O)C/C=C/[C@@H](N)Cc1ccc(O)cc1`: the Relative potency in assay [1] was 300%.

In the case of `CC(C)C[C@H](NC(=O)[C@H](Cc1ccccc1)NC(=O)CNC(=O)COC[C@@H](N)Cc1ccc(O)cc1)C(N)=O`, the Ratio came out at 3.12 in [8] and 2.12 in assay [13]. Moreover, the Ki came to 7.78 nM in assay [9] and 3.69 nM in [15]. Moreover, the values for the Relative potency in assay [10], in [1] and in [14] were 0.13%, 106% and 1.06%, respectively. The values for the IC50 in assay [11] and in assay [12] were 92 nM and 30 nM, respectively.

Molecule `CSCC[C@H](NC(=O)[C@H](Cc1ccccc1)NC(=O)CNC(=O)CCC[C@H](N)Cc1ccc(O)cc1)C(N)=O` displayed a Relative potency in assay [1] of 3%.

`CSCC[C@H](NC(=O)[C@H](Cc1ccccc1)NC(=O)CNC(=O)CNC[C@@H](N)Cc1ccc(O)cc1)C(N)=O` returned a Relative potency in assay [1] of 56%.

As to `CSCC[C@H](NC(=O)[C@H](Cc1ccccc1)NC(=O)CN(C)C(=O)CNC(=O)[C@@H](N)Cc1ccc(O)cc1)C(=O)O`, the Relative potency in assay [1] is 0.1%.

Turning to `CC(C)C[C@H](NC(=O)[C@H](Cc1ccccc1)NC(=O)CSCCNC(=O)[C@@H](N)Cc1ccc(O)cc1)C(=O)O`, in assay [1], the Relative potency was less than 1%.

On to `CSCC[C@H](NC(=O)[C@H](CC(C)C)NC(=O)CN(C)C(=O)[C@H](Cc1ccccc1)NC(=O)[C@H](Cc1ccccc1)NC(=O)[C@@H]1CCC(=O)N1)C(N)=O` ([pGlu]FF[Sar]LM-NH2), for which the Relative potency in [16] is 80%. In [17], this molecule came in with an EC50 of 2 nM.

In the case of `CSCC[C@H](NC(=O)[C@H](Cc1ccccc1)NC(=O)CNC(=O)[C@@H](C)NC(=O)[C@@H](N)Cc1ccc(O)cc1)C(N)=O`, the Ratio in assay [8] amounted to 0.14. For the same molecule, the figures for the Relative potency in assay [10] and in [1] were 2.8% and 1.1%, respectively. Also, the half-inhibitory concentration (IC50) in assay [11] came out at 4.2 nM; in [12], 29 nM.

Take `CC(C)C[C@H](NC(=O)[C@H](Cc1ccccc1)NC(=O)COC[C@@H](C)NC(=O)[C@@H](N)Cc1ccc(O)cc1)C(N)=O`: the Ratio in assay [8] was determined as 0.37. Further, the Relative potency in assay [10] and in assay [14] was 1% each time. Further, the half-inhibitory concentration (IC50) was determined as 11.8 nM in assay [11] and 32 nM in assay [12].

Regarding `CSCC[C@H](NC(=O)[C@H](CC(C)C)NC(=O)C/C=C/[C@H](Cc1ccccc1)NC(=O)[C@H](Cc1ccccc1)NC(=O)[C@@H]1CCC(=O)N1)C(N)=O` ([pGlu]F[X4]LM-NH2), the Relative potency in assay [16] was determined as 24%. The EC50 in assay [17] amounted to 2 nM.

In assay [1], `N[C@@H](Cc1ccc(O)cc1)C(=O)NC/C=C/CC(=O)N[C@@H](Cc1ccccc1)C(=O)N1CCC[C@H]1C(=O)O` returned a Relative potency of 0.1%.

Regarding `CSCC[C@H](NC(=O)[C@H](CC(C)C)NC(=O)COC[C@H](Cc1ccccc1)NC(=O)[C@H](Cc1ccccc1)NC(=O)[C@@H]1CCC(=O)N1)C(N)=O` ([pGlu]F[X1]LM-NH2), the Ratio in assay [2] worked out at 3.16. The results for the Relative potency in assay [3] and in assay [16] were 40% and 25%, respectively. The EC50 was 39.6 nM in [5]; 12.5 nM in [18]; 2000 nM in assay [6]; 4.8 nM in assay [7]; 2 nM in [17].

In the case of `CC(C)CC(NC(=O)[C@H](Cc1ccccc1)NC(=O)COC[C@@H](CO)NC(=O)C(N)Cc1ccc(O)cc1)C(=O)N[C@H](C(=O)O)[C@@H](C)O` (stereo not given in full), the Ratio in assay [8] stood at 0.0015. The Relative potency in [10] was determined as 21.8%; in assay [14], 0.09%. In addition, the IC50 in assay [11] came to 0.54 nM; in assay [12] it was 350 nM.

As for `CSCC[C@H](NC(=O)[C@H](Cc1ccccc1)NC(=O)CNC(=O)CN(C)C(=O)[C@@H](N)Cc1ccc(O)cc1)C(=O)O`, the Relative potency in assay [1] was less than 2.1%.

Take `C[C@@H](NC(=O)[C@@H](N)Cc1ccc(O)cc1)C(=O)NCC(=O)N(C)[C@@H](Cc1ccccc1)C(=O)NCCO` [DAMGO]: in assay [9], the Ki turned out to be 629 nM. Further, the IC50 in [11] amounted to 51.5 nM; in [12], 18 nM.

`CC(C)C[C@H](NC(=O)[C@H](Cc1ccccc1)NC(=O)C/N=C(\S)CNC(=O)[C@@H](N)Cc1ccc(O)cc1)C(=O)O` showed a Relative potency in assay [1] of 400%.

Turning to `CC(C)C[C@H](NC(=O)[C@H](Cc1ccccc1)NC(=O)CNC(=O)CSC[C@@H](N)Cc1ccc(O)cc1)C(=O)O`, the Relative potency in [1] came to 24.1%.

`CSCC[C@H](NC(=O)[C@H](CC(C)C)NC(=O)CCC(=O)[C@H](Cc1ccccc1)NC(=O)[C@H](Cc1ccccc1)NC(=O)[C@@H]1CCC(=O)N1)C(N)=O` ([pGlu]F[X3]LM-NH2) registered a Relative potency in assay [16] of 70%. For the same molecule, in assay [17], the EC50 came to 2 nM.

Molecule `CSCC[C@H](NC(=O)[C@H](CC(C)C)NC(=O)CC(=O)N[C@H](Cc1ccccc1)NC(=O)[C@H](Cc1ccccc1)NC(=O)[C@@H]1CCC(=O)N1)C(N)=O` registered a Relative potency in assay [16] of 22%. The same molecule yielded an EC50 in assay [17] of 2 nM.

On to `CSCC[C@H](NC(=O)[C@H](CC(C)C)NC(=O)CNC(=O)[C@H](Cc1ccccc1)N(C)C(=O)[C@H](Cc1ccccc1)NC(=O)[C@@H]1CCC(=O)N1)C(N)=O` ([pGlu]F[NMeF]GLM-NH2), for which the Ratio in assay [2] was found to be 670. For the same molecule, the Relative potency in [19] amounted to 555%. For the same molecule, the EC50 in assay [5] is 600 nM; in assay [18], 0.9 nM; in assay [6], 20000 nM; in [7], 0.4 nM.

`CC(C)C[C@H](NC(=O)[C@H](Cc1ccccc1)NC(=O)COCCNC(=O)[C@@H](N)Cc1ccc(O)cc1)C(N)=O` (H-Y[AEA]FL-NH2): the Ratio result in assay [20] is “inactive”. The Ki in assay [9] amounted to 9200 nM; in assay [15], 1380 nM. Moreover, the Relative potency is recorded as 1.4% in [1] and 0.014% in [14]. In addition, the figures for the IC50 in [12] and in assay [21] were 2300 nM and “Not Active”, respectively. Further, the Ratio in assay [13] was 6.66. In addition, the Relative potency result in assay [22] is “inactive”.
